Reference: US10220100B2, “Halogenated phenols for diagnostics, antioxidant protection and drug delivery” (priority 2011, dated 2019)
One block for each molecule: values may come before it.

Legend:
[1] = Spontaneous dehalogenation and ether cleavage in buffered aqueous solution exposed to sunlight; format: physicochemical; settings: about 1 mM in carbonate buffer (pH 8.0), sunlight for about one hour; yellow/orange solution, iodide released
Source text: In contrast to reductive deiodination, spontaneous dehalogenation (e.g., deiodination) of a halogentated phenol ring in the presence of an oxidizing agent(s) and/or free radical(s) with cleavage of a chemical linkage, such as an ether linkage, etc., between the phenol ring and a conjugated compound has not been described. According to the present invention, cleavage of the ether linkage between the aromatic rings of thyroid hormone may form visibly colored quinone and iodine-containing products in buffered aqueous solutions in vitro, and this ether cleavage reaction may be accelerated under basic pH conditions and with exposure to ionizing radiation or light. These conditions favor the increased formation of oxidizing agents and/or free radicals, which are believed to promote the reaction. […] A quinone and an iodotyrosine product are also formed by cleavage of the ether linkage during the reaction. According to embodiments of the present invention, a spontaneous reaction of dehalogenation and cleavage of a chemical bond is proposed for the targeted delivery and release of a drug compound at or to sites of inflammation or disease. This spontaneous reaction is further proposed as a basis for scavenging free radicals and/or oxidative agents (FROS) as well as for the creation of a detectable compound(s) that may be used for diagnostic purposes.

[2] = tested on: thyroid hormone activity; settings: cited from earlier work
[3] = Cleavage of the C—C bond during the oxidative dehalogenation reaction; format: physicochemical; settings: presence of free radicals and/or oxidative agents
Source text: It has also been discovered that other types of bonds or linkages may also be cleaved by oxidative or free radical-mediated dehalogenation of the phenol ring. For example, as described herein, it has now been observed that a carbonyl linkage, a nitrogen linkage, a sulfinyl linkage and possibly a C—C bond on the phenol ring may also be cleaved by the oxidative dehalogenation reaction. These bonds are also considered stable, and their cleavage in connection with the dehalogenation reaction is surprising as well. One caveat with the C—C bond or linkage is that depending on the particular starting compound structure and the substituents or groups attached to the halogenated phenol ring via the C—C bond, the C—C bond or linkage may or may not be generally cleaved during or following the dehalogenation reaction (see below). […] However, other compounds do become cleaved. It is important to note that whether a C—C bond of a particular starting compound is “cleavable,” or becomes cleaved, may not be all-or-nothing (i.e., the C—C bond may be considered non-cleavable even though a small or minute amount of cleavage may occur, and vice versa). Thus, the amount or percentage of cleavage may be partial with the alternatively cleaved or non-cleaved product being possibly undetected or minute. […]

[4] = tested on: spontaneous mammary tumors; settings: 10 mg by gavage; X-ray imaging about two hours after; mice with spontaneous tumors; same mice before treatment showed no foci
Source text: As described above, oxidative foci or tumors may be identified by X-ray radiographic imaging of animals following administration of an indigogenic compound of the present invention. The radio-opaque indigo-like product formed and deposited with residence time in FROS-containing tumor tissues may then be detected.
In this example, female C3H/HeN mice were obtained as multiparous retired breeders (i.e., after 3 to 4 litters) that were positive for a mammary tumor virus. […] Mice showing spontaneous tumors were given 10 mg of 5-Iodo-Indoxyl-3′,5′-Diiodo-4′-hydroxy ether substrate (product of Example 4) by gavage. These mice were then subjected to X-ray imaging of the tumors about two hours after being fed the iodo-indigogenic compound. […] When developed, the X-ray film appears dark in areas where more transmission occurs and light in areas where less transmission occurs.

[5] = tested on: sites of the wound or injury; settings: mice administered the compound, small injuries (cuts, scratches); data not shown

SMILES: N[C@@H](Cc1cc(I)c(Oc2cc(I)c(O)c(I)c2)c(I)c1)C(=O)O [thyroxine]
cleavage of the ether linkage [1]: the ether linkage is broken spontaneously

SMILES: N[C@@H](Cc1ccc(Oc2cc(I)c(O)c(I)c2)c(I)c1)C(=O)O [Reverse T3, 3,3′,5′-triiodothyronine]
thyroid hormone activity [2]: no measurable thyroid hormone activity

cleavage of C—C bond with the dehalogenation reaction [3]: generally not to be cleaved | cleavage of C—C bond with the dehalogenation reaction ([3]; listed as MIT): generally not be cleaved
SMILES: N[C@@H](Cc1ccc(O)c(I)c1)C(=O)O [mono-iodotyrosine, 3-iodo-4-hydroxy-L-phenylalanine]

SMILES: Oc1c(I)cc(Oc2c[nH]c3ccc(I)cc23)cc1I [5-Iodo-Indolyl-3′,5′-Diiodo-4′-hydroxyl-p-Phenol Ether]
radio-opaque tumor regions or foci by X-ray [4]: radio-opaque tumor regions or foci | X-ray detection at sites of wound or injury [5]: strong detection was observed at the sites of the wound or injury
